Results on 32 compounds are retold here after ChEMBL document CHEMBL5291721, “A preclinical secondary pharmacology resource illuminates target-adverse drug reaction associations of marketed drugs” (Nat Commun, 2023).

Values joined by “and” are separate entries in the source; they are usually repeats but may differ in a detail not shown here. Equal entries are not always repeated.

Targets include Cannabinoid receptor 1 (Homo sapiens, UniProt P21554); Melanocortin receptor 4 (Homo sapiens, UniProt P32245); Mu-type opioid receptor (Homo sapiens, UniProt P35372).
In test [1] the target is Beta-2 adrenergic receptor (Homo sapiens, UniProt P07550). The test is classed as functional, cell-based.
Test [2] deals with T1, Androgen receptor (Rattus norvegicus, UniProt P15207).
T1 sequence (P15207 whole entry): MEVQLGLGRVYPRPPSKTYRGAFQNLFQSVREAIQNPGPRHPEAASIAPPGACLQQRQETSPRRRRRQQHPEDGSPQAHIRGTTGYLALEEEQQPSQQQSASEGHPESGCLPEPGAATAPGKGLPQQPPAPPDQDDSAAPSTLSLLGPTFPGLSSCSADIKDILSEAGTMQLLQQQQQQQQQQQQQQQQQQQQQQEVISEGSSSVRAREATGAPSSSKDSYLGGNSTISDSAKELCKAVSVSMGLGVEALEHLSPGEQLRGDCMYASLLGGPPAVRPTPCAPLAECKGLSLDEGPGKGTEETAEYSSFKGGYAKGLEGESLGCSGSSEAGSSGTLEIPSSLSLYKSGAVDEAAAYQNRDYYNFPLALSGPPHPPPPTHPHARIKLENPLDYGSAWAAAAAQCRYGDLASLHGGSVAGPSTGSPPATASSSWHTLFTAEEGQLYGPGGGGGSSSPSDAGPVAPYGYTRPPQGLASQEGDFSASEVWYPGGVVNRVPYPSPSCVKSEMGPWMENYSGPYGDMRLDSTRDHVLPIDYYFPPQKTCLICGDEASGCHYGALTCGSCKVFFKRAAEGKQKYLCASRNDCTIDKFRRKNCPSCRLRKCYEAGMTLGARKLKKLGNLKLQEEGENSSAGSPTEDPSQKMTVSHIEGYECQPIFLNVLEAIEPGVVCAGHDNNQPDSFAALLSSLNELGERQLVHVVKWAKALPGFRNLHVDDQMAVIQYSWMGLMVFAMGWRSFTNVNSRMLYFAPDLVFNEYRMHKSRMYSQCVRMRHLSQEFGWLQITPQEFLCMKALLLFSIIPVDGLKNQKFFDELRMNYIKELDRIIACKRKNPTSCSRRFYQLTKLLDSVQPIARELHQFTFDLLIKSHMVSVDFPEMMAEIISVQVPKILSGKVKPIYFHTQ
The test is classed as functional.

For test [3], the target named is T1, Androgen receptor. The class given is functional. This is another data set of the same source.
The target in test [4] is T2, Alpha-1A adrenergic receptor (Homo sapiens, UniProt P35348).
T2 sequence (P35348 whole entry): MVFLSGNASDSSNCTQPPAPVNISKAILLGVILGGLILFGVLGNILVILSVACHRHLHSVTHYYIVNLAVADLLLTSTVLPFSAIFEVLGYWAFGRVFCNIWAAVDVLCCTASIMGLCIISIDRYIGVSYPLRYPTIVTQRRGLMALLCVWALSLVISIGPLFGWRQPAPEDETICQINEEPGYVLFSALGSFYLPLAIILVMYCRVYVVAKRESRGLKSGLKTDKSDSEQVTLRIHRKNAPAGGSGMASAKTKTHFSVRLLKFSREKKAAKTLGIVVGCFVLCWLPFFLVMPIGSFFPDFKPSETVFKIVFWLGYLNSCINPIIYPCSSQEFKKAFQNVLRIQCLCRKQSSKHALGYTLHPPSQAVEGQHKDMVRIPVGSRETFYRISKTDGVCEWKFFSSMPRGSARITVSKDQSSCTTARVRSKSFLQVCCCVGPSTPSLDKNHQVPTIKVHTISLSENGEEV

Test [5] concerns the target Beta-3 adrenergic receptor (Homo sapiens, UniProt P13945).
The target in test [6] is T3, Alpha-2A adrenergic receptor (Homo sapiens, UniProt P08913).
T3 sequence (P08913 whole entry): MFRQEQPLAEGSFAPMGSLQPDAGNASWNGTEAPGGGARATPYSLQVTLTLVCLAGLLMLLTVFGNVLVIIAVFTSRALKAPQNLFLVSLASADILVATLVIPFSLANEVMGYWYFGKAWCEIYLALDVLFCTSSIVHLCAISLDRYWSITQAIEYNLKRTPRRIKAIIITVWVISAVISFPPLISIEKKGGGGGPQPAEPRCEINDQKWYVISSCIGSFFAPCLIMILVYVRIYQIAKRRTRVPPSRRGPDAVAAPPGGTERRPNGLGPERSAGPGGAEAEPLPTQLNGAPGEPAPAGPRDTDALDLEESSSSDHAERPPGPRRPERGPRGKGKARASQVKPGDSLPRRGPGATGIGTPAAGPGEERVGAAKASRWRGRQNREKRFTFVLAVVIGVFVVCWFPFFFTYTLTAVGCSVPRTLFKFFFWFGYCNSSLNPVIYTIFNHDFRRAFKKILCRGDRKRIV

For test [7], the target named is T4, Gamma-aminobutyric acid receptor subunit alpha-1/alpha-2/beta-2/gamma-2 (Homo sapiens, UniProt P14867+P18507+P47869+P47870). The test is classed as functional, cell-based.
Test [8] concerns the target T4, Gamma-aminobutyric acid receptor subunit alpha-1/alpha-2/beta-2/gamma-2. The test is classed as functional, cell-based. The source holds these as a separate data set.
Further: assay procedure not described here.

Sequence of Melanocortin receptor 4 (P32245 whole entry): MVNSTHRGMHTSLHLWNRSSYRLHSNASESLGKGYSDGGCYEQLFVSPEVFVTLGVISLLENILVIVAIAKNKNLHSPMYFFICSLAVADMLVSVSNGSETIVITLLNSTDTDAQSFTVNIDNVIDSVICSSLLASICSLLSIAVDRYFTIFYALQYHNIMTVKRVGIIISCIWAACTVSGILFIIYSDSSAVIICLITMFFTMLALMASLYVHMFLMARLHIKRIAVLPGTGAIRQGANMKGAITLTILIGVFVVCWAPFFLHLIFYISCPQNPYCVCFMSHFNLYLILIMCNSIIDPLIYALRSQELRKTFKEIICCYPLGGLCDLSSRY
T4 sequence (P14867 whole entry): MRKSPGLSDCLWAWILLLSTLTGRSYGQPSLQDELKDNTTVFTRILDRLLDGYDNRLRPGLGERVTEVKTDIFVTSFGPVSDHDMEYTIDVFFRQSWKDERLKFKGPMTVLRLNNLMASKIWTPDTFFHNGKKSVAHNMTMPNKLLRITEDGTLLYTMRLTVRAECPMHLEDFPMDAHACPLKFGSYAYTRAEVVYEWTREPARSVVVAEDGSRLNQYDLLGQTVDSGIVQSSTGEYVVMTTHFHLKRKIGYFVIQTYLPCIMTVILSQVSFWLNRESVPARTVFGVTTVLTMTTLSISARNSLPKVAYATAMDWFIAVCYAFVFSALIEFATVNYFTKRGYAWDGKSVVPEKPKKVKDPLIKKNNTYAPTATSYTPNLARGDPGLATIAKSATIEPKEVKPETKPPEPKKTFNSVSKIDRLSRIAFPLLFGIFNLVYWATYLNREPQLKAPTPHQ
T4 sequence (P47870 whole entry): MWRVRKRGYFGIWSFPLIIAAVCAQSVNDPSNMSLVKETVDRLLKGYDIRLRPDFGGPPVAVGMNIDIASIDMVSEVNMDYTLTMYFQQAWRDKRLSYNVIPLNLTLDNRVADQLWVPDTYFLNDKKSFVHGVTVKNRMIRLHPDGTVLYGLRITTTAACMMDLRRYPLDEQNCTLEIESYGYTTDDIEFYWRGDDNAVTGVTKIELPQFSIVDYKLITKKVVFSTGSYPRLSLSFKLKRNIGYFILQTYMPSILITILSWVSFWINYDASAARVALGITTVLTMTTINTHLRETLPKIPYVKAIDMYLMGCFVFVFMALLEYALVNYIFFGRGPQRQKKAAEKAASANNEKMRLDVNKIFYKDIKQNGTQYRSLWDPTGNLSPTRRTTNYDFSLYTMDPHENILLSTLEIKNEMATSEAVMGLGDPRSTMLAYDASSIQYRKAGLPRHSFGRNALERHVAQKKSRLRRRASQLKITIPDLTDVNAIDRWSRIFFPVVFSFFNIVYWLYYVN
T4 sequence (P18507 whole entry): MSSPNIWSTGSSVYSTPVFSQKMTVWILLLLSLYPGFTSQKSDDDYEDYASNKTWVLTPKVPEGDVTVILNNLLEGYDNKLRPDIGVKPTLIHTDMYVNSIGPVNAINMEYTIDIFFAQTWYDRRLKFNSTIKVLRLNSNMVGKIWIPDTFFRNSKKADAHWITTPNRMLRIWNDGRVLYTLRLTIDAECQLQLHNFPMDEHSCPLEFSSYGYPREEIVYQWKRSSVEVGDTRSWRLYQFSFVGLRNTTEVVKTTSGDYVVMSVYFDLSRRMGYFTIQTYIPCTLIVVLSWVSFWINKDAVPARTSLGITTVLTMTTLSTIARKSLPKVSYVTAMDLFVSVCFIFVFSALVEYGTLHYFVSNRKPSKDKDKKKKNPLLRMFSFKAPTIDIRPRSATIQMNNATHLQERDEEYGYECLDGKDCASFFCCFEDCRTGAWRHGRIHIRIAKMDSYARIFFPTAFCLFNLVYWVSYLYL
T4 sequence (P47869 whole entry): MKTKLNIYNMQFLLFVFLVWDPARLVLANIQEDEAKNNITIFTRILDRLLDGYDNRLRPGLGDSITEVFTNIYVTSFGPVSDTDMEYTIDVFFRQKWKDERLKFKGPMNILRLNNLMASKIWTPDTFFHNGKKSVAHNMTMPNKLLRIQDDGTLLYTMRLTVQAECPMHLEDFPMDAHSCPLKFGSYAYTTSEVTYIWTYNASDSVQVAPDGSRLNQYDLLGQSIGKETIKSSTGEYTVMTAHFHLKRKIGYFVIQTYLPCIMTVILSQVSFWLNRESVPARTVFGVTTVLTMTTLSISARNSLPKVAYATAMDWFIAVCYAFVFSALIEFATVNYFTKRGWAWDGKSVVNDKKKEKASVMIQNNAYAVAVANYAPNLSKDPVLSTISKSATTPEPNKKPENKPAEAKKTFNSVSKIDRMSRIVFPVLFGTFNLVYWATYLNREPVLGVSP
Sequence of Beta-3 adrenergic receptor (P13945 whole entry): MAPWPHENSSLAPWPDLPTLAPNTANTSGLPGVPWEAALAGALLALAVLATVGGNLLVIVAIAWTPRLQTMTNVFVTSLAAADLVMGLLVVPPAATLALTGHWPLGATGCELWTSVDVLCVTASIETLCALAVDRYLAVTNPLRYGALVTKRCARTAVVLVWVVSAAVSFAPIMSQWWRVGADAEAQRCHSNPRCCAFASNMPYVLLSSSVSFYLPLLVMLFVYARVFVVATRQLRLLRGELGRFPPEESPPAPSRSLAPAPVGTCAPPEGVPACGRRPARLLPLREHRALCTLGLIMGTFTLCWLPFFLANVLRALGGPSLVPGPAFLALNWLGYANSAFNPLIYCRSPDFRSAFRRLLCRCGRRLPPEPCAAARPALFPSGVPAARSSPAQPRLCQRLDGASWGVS
Sequence of Cannabinoid receptor 1 (P21554 whole entry): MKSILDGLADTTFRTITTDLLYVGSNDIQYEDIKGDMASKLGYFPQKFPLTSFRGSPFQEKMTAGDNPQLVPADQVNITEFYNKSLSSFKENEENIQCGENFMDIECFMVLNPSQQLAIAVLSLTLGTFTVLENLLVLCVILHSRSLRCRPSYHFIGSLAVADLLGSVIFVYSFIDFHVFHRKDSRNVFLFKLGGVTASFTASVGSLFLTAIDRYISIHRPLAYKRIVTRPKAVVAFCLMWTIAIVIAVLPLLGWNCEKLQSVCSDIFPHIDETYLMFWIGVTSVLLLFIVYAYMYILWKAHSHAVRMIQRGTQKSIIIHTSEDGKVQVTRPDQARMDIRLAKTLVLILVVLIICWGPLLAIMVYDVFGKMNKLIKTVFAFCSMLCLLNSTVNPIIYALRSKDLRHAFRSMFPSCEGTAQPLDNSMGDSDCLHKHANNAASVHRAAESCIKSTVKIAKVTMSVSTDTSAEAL
Sequence of Mu-type opioid receptor (P35372 whole entry): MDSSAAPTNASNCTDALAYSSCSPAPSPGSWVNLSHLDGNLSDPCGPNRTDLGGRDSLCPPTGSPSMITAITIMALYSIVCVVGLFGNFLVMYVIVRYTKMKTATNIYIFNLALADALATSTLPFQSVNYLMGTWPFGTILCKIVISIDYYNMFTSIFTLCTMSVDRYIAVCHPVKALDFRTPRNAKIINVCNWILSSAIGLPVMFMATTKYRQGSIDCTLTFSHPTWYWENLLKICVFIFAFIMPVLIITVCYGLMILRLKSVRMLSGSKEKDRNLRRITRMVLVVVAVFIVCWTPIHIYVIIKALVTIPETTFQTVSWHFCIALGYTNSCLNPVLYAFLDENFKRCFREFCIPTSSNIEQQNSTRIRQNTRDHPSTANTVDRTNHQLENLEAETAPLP

Regarding `N=C(N)NCCCCCCC(=O)NC(O)C(=O)NCCCCNCCCN` (stereo not given), in test [1], the AC50 was above 30 µM.
In the case of `C=C[C@@]1(C)CC(=O)[C@]2(O)[C@@]3(C)[C@@H](O)CCC(C)(C)[C@@H]3[C@H](OC(=O)CCN(C)C)[C@H](OC(C)=O)[C@@]2(C)O1`, the AC50 at Androgen receptor [2] and at Androgen receptor [3] was above 30 µM each time.
`NCCCC(O)(P(=O)(O)O)P(=O)(O)O` [ALENDRONIC ACID]: the AC50 in [4] is above 10 µM; at Cannabinoid receptor 1, above 10 µM; in [5], above 30 µM; on Melanocortin receptor 4, above 30 µM; in [6], above 10 µM.
For the compound `CC(=O)OCC(=O)[C@@]1(O)CC[C@H]2[C@@H]3CCC4=CC(=O)CC[C@]4(C)C3=CC[C@@]21C` [ANECORTAVE ACETATE], the AC50 is above 10 µM in test [4], above 30 µM on Mu-type opioid receptor, above 10 µM at Cannabinoid receptor 1 and above 10 µM on Melanocortin receptor 4.
Take `COc1cc(OC)c(C(=O)CCCN2CCCC2)c(OC)c1` [BUFLOMEDIL]: the concentration at half-maximal activity (AC50) at Androgen receptor [2] and on Androgen receptor [3] was above 30 µM in each case.
Regarding `CS(=O)(=O)OCCCCOS(C)(=O)=O` [BUSULFAN], the AC50 in test [7] and in [1] was above 30 µM throughout.
For `CCCCCCNC(=O)n1cc(F)c(=O)[nH]c1=O` [CARMOFUR], the AC50 (in test [4]; at Cannabinoid receptor 1) was above 30 µM in each case.
In turn, `C=CC1=C(C(=O)O)N2C(=O)[C@@H](NC(=O)/C(=N\OCC(=O)O)c3csc(N)n3)[C@H]2SC1` [CEFIXIME] gave an AC50 in test [1] above 30 µM.
As for `CO[C@@]1(NC(=O)Cc2cccs2)C(=O)N2C(C(=O)O)=C(COC(N)=O)CS[C@@H]21` [CEFOXITIN], the AC50 in [7] and in test [1] was above 30 µM throughout.
Regarding `CCN(CC)CCOC(=O)c1ccc(N)cc1Cl` [CHLOROPROCAINE], the AC50 in test [7], in [1] and in test [8] was above 30 µM throughout.
On to `COc1cccc2c1C(=O)c1c(O)c3c(c(O)c1C2=O)C[C@@](O)(C(C)=O)C[C@@H]3O[C@H]1C[C@H](N)[C@H](O)[C@H](C)O1` [DAUNORUBICIN], for which the figures for the AC50 (at Mu-type opioid receptor; in [1]) were 24 µM and above 30 µM, respectively.
`C[C@@H]1C[C@H]2[C@@H]3C[C@H](F)C4=CC(=O)C=C[C@]4(C)[C@@]3(F)[C@@H](O)C[C@]2(C)[C@H]1C(=O)CO` [DIFLUCORTOLONE] came in with an AC50 at Androgen receptor [3] of 2.6 µM.
With `Clc1ccc(C(Cn2ccnc2)OCc2ccc(Sc3ccccc3)cc2)c(Cl)c1` (stereo not given) [FENTICONAZOLE], the concentration at half-maximal activity (AC50) at Cannabinoid receptor 1 worked out at 11 µM.
Consider `O=C(O)c1ccccc1OP(=O)(O)O` [FOSFOSAL], for which the half-maximal activity concentration (AC50) in test [7], in test [1] and in test [8] was above 30 µM in each case.
On to `Nc1ccn([C@@H]2O[C@H](CO)[C@@H](O)C2(F)F)c(=O)n1` [GEMCITABINE], for which the AC50 in test [4] was above 10 µM; on Mu-type opioid receptor, above 30 µM; at Melanocortin receptor 4 it was above 30 µM.
`C#C[C@]1(O)CC[C@H]2[C@@H]3CCC4=CC(=O)CCC4=C3C=C[C@@]21CC` [GESTRINONE]: in [1], the AC50 is above 30 µM.
With `CC(=O)Nc1c(I)c(C(=O)N[C@H]2C(O)O[C@H](CO)[C@@H](O)[C@@H]2O)c(I)c(N(C)C(C)=O)c1I` (stereo not given in full) [METRIZAMIDE], the AC50 in test [4] was above 10 µM; on Mu-type opioid receptor it was above 30 µM; on Cannabinoid receptor 1, above 10 µM; on Melanocortin receptor 4, above 10 µM.
For `O=C1CN=C(c2ccccc2)c2cc(Cl)ccc2N1` [NORDAZEPAM], the AC50 in test [4] was above 10 µM; on Mu-type opioid receptor it was above 10 µM; in [1], above 30 µM; at Cannabinoid receptor 1, above 10 µM; in [5], above 30 µM; at Melanocortin receptor 4, above 30 µM. Moreover, the half-maximal activity concentration (AC50) in test [6] was above 10 µM.
`CC(=O)O[C@H]1C[C@@H]2CC[C@@H]3[C@H](CC[C@@]4(C)[C@H]3C[C@H]([N+]3(C)CCCCC3)[C@@H]4OC(C)=O)[C@@]2(C)C[C@@H]1[N+]1(C)CCCCC1` [PANCURONIUM]: the AC50 in test [4] is above 10 µM; on Mu-type opioid receptor, above 30 µM; at Cannabinoid receptor 1 it was above 10 µM; at Melanocortin receptor 4 it was above 10 µM.
Consider `CCn1cc(C(=O)O)c(=O)c2cc(F)c(N3CCN(C)CC3)cc21` [PEFLOXACIN], for which the AC50 in test [7] and in test [1] was above 30 µM each time.
Consider `C[n+]1ccccc1/C=N/O` [PRALIDOXIME], for which the AC50 in [7] and in test [1] was above 30 µM in each case.
`CCCNC(C)C(=O)Nc1ccccc1C` (stereo not given) [PRILOCAINE]: the concentration at half-maximal activity (AC50) in [7] and in test [1] was above 30 µM in each case.
Compound `CCCOC(C(=O)OC1CCN(C)CC1)(c1ccccc1)c1ccccc1` [PROPIVERINE] yielded a concentration at half-maximal activity (AC50) at Mu-type opioid receptor of 0.75 µM.
For the compound `CC(NCCc1ccc(O)cc1)C(O)c1ccc(O)cc1` (stereo not given) [RITODRINE], the half-maximal activity concentration (AC50) is 10 µM and 1.54 µM in [4]; 13 µM and 9.2 µM on Mu-type opioid receptor; above 30 µM on Cannabinoid receptor 1; above 10 µM at Melanocortin receptor 4.
Regarding `CC(C)CC(N(C)C)C1(c2ccc(Cl)cc2)CCC1` (stereo not given) [SIBUTRAMINE], the AC50 at Mu-type opioid receptor is above 30 µM; at Cannabinoid receptor 1, above 10 µM; in test [5], above 30 µM; on Melanocortin receptor 4, above 30 µM; in test [6], above 10 µM.
Regarding `[H]/N=C(/N)N[C@H]1[C@H](O)[C@@H](O)[C@H](O[C@@H]2O[C@@H](C)[C@](O)(C=O)[C@H]2O[C@@H]2O[C@@H](CO)[C@H](O)[C@@H](O)[C@@H]2NC)[C@@H](N/C(N)=N\[H])[C@@H]1O` [STREPTOMYCIN], the concentration at half-maximal activity (AC50) in test [4] is above 10 µM; on Mu-type opioid receptor, above 10 µM; at Cannabinoid receptor 1, above 30 µM; in [5], above 30 µM; on Melanocortin receptor 4, above 30 µM; in test [6], above 10 µM.
Take `COc1c(O[C@@H]2O[C@H](CO)[C@@H](O)[C@H](O)[C@H]2O)cc2c(c1OC)-c1ccc(SC)c(=O)cc1[C@@H](NC(C)=O)CC2` [THIOCOLCHICOSIDE]: the concentration at half-maximal activity (AC50) in [1] was above 30 µM.
With `Cc1cccc(N(C)C(=S)Oc2ccc3ccccc3c2)c1` [TOLNAFTATE], the AC50 is above 30 µM in [4], above 30 µM at Mu-type opioid receptor, above 10 µM at Cannabinoid receptor 1 and above 10 µM on Melanocortin receptor 4.
On to `COc1cc2c(Nc3ccc(Br)cc3F)ncnc2cc1OCC1CCN(C)CC1` [VANDETANIB], for which the AC50 in test [7], in test [1] and in test [8] was above 30 µM each time.
With `COc1ccc(C(CN(C)C)C2(O)CCCCC2)cc1` (stereo not given) [VENLAFAXINE], the AC50 at Mu-type opioid receptor was above 30 µM; in test [1] it was above 30 µM; at Cannabinoid receptor 1, 5.5 µM; on Melanocortin receptor 4, above 30 µM; in test [6], above 10 µM.
With `C=CC(N)CCC(=O)O` (stereo not given) [VIGABATRIN], the concentration at half-maximal activity (AC50) is above 10 µM in [4], above 30 µM at Mu-type opioid receptor, above 10 µM on Cannabinoid receptor 1 and above 10 µM on Melanocortin receptor 4.
Consider COLISTIN, for which the AC50 in test [1] is above 30 µM.

As usually defined, the AC50 is the concentration at which the activity in the assay is half-maximal. Low readings indicate greater potency, high ones weaker potency.
